Assay results: ChEMBL document CHEMBL4715878 (J Med Chem, 2020)

What was measured:
MDA-MB-231 = assay: Antiproliferative activity against human MDA-MB-231 cells assessed as reduction in cell viability incubated for 72 hrs by WST8 assay; format: functional, cell-based; conditions: MDA-MB-231, 72 h
MCF7 [1] = assay: Antiproliferative activity against human MCF7 cells assessed as reduction in cell viability incubated for 72 hrs by WST8 assay; format: functional, cell-based; conditions: MCF7, 72 h
BT-474 = assay: Antiproliferative activity against human BT474 cells assessed as reduction in cell viability incubated for 72 hrs by WST8 assay; format: functional, cell-based; conditions: BT-474, 72 h
AU565 = assay: Antiproliferative activity against human AU565 cells assessed as reduction in cell viability incubated for 72 hrs by WST8 assay; format: functional, cell-based; conditions: AU565, 72 h
[2] = target: Platelet-derived growth factor receptor alpha (Homo sapiens, UniProt P16234); assay: Effect on human recombinant N-terminal GST-tagged PDGFRalpha (550 to end residues) expressed in baculovirus infected Sf9 insect cells in presence of substrate and [gamma-32ATP] at 10 uM incubated for 30 mins by scintillation counting based radiometry assay relative to control; conditions: 0.5 h, read-out: Activity
[3] = target: Receptor tyrosine-protein kinase erbB-4 (Homo sapiens, UniProt Q15303); assay: Effect on human recombinant N-terminal GST-tagged HER4 (682 to 993) expressed in baculovirus infected Sf9 insect cells in presence of substrate and [gamma-32ATP] at 10 uM incubated for 30 mins by scintillation counting based radiometry assay relative to control; conditions: 0.5 h, read-out: Activity
[4] = target: T1, Receptor tyrosine-protein kinase erbB-2 (Homo sapiens, UniProt P04626); conditions: Sf9, human, 0.5 h
[5] = target: Epidermal growth factor receptor (Homo sapiens, UniProt P00533); conditions: 0.5 h
Description: Effect on human EGFR in presence of substrate and [gamma-32ATP] at 10 uM incubated for 30 mins by scintillation counting based radiometry assay relative to control

[6] = Antiproliferative activity against human BC assessed as lethality at 10 uM after 48 hrs by SRB assay relative to control; format: functional
[7] = Antiproliferative activity against human BC assessed as cell growth inhibition at 10 uM after 48 hrs by SRB assay relative to control; format: functional; conditions: read-out: GI
[8] = Antiproliferative activity against human MDA-MB-231 cells assessed as lethality at 10 uM after 48 hrs by SRB assay relative to control; format: functional, MDA-MB-23
MCF7 [9] = assay: Antiproliferative activity against human MCF7 cells assessed as lethality at 10 uM after 48 hrs by SRB assay relative to control; format: functional
MDA-MB-468 [10] = assay: Antiproliferative activity against human MDA-MB-468 cells assessed as lethality at 10 uM after 48 hrs by SRB assay relative to control; format: functional
MDA-MB-468 [11] = assay: Antiproliferative activity against human MDA-MB-468 cells assessed as cell growth inhibition at 10 uM after 48 hrs by SRB assay relative to control; format: functional; conditions: read-out: GI
[12] = system: Panel NCI-60 (60 carcinoma cell lines); assay: Antiproliferative activity against human NCI60 cells assessed as lethality at 10 uM after 48 hrs by SRB assay relative to control; format: functional
[13] = system: Panel NCI-60 (60 carcinoma cell lines); assay: Antiproliferative activity against human NCI60 cells assessed as mean cell growth at 10 uM after 48 hrs by SRB assay relative to control; format: functional
MCF7 [14] = assay: Potency index, ratio of lapatinib IC50 to test compound IC50 for antiproliferative activity against human MCF7 cells; format: functional
MDA-MB-468 [15] = assay: Antiproliferative activity against human MDA-MB-468 cells assessed as cell growth inhibition after 48 hrs by SRB assay; format: functional
in vitro [16] = conditions: CD-1, mouse, liver microsomes
in vitro [17] = conditions: CD-1, mouse, microsomes
[18] = target: T1, Receptor tyrosine-protein kinase erbB-2; assay: Inhibition of wild-type HER2 (unknown origin) at 0.5 nM in presence of substrate incubated for 30 mins by ADP-Glo assay relative to control
[19] = target: T1, Receptor tyrosine-protein kinase erbB-2; assay: Inhibition of HER2 (unknown origin) in presence of substrate incubated for 30 mins by ADP-Glo assay

Chain of Epidermal growth factor receptor (P00533 whole entry): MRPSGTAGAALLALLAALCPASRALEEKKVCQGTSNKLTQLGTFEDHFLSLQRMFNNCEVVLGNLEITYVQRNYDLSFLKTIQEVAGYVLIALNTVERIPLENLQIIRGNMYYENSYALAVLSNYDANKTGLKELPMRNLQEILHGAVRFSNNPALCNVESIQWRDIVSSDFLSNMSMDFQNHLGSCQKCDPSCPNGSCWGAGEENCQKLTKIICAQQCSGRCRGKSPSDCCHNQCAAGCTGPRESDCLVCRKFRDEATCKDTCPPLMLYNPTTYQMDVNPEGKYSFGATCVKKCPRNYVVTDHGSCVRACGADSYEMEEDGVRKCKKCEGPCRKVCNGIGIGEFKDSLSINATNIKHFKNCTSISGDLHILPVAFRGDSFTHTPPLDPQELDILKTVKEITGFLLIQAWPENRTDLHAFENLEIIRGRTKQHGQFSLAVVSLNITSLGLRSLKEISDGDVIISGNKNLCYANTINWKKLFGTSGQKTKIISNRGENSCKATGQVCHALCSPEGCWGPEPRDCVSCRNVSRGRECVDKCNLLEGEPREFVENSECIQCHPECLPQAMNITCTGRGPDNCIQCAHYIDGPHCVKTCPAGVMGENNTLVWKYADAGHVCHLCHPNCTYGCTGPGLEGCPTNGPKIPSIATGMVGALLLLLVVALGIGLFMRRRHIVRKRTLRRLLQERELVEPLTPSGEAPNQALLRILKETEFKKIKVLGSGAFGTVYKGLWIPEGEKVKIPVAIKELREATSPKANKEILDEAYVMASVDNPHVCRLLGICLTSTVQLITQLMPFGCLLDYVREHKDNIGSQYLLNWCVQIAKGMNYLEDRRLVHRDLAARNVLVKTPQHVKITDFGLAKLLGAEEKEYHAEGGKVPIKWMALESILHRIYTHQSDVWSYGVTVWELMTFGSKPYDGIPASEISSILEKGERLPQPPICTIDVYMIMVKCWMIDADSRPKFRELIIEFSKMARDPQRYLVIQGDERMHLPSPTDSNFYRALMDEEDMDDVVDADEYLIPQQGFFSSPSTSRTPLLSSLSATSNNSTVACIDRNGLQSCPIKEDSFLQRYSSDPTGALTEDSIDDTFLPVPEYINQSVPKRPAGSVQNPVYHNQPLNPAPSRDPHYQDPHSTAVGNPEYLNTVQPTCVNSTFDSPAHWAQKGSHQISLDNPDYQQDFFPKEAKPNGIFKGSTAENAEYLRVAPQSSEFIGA
Chain of Receptor tyrosine-protein kinase erbB-4 (Q15303 whole entry): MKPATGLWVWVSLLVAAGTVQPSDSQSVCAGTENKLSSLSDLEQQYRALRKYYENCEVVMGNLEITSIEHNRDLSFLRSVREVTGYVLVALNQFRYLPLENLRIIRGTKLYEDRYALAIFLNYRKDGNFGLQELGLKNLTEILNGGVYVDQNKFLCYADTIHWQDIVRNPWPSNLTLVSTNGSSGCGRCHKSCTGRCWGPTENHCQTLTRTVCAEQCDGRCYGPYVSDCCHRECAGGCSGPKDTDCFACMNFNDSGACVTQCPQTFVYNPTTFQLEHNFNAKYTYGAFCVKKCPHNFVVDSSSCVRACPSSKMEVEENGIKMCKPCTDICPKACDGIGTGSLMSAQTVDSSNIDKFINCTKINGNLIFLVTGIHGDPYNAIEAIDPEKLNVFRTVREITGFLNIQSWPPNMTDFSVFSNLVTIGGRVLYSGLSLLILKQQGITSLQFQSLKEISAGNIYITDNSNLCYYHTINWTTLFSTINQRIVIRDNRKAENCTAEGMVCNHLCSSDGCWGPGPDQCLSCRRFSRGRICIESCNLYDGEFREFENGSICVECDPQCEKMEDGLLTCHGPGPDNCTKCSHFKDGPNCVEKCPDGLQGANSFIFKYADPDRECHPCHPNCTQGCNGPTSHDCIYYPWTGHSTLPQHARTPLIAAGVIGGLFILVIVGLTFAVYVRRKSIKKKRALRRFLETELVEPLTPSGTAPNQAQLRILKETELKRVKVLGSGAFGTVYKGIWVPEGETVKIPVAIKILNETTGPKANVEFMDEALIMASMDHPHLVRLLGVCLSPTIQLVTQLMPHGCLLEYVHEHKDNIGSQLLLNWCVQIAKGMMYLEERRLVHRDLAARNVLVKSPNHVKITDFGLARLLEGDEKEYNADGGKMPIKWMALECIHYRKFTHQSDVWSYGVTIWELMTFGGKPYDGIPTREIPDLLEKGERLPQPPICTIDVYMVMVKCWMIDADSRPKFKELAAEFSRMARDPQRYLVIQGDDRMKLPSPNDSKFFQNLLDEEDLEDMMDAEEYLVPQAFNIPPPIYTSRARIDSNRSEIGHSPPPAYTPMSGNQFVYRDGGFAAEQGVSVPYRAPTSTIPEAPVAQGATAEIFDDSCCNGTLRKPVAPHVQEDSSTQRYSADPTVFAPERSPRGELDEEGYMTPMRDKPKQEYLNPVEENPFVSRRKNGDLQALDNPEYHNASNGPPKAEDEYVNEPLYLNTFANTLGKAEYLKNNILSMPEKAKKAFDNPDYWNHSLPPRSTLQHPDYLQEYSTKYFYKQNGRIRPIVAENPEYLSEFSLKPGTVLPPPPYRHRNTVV
Chain of Platelet-derived growth factor receptor alpha (P16234 whole entry): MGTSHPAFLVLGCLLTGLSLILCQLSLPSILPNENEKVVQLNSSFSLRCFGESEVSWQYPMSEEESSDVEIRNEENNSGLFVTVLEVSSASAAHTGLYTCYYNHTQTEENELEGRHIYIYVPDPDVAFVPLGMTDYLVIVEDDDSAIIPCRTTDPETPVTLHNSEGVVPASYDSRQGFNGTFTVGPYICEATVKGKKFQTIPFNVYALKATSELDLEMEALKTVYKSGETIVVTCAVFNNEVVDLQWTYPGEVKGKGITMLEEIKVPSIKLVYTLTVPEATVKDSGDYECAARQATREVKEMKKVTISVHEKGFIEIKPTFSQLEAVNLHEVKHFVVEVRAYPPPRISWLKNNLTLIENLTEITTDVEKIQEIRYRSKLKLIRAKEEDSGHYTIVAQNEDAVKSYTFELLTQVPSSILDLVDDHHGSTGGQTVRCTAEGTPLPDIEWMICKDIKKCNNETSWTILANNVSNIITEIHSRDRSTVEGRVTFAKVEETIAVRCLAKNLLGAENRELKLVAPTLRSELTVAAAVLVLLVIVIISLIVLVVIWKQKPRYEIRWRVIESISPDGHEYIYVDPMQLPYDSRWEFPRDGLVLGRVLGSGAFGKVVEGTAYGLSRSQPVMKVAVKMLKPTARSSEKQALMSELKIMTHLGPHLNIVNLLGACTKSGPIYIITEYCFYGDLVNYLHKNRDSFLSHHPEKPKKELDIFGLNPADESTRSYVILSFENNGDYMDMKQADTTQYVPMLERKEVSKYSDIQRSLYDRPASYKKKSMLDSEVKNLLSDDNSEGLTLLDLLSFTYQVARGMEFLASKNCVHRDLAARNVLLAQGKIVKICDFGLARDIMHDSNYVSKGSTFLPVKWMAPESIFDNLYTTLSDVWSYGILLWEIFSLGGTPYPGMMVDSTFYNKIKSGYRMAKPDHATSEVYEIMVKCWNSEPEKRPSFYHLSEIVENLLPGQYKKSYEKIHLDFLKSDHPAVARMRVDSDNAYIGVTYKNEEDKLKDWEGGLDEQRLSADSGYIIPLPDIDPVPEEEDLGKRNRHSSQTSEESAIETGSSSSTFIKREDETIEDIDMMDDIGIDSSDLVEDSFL
T1 sequence (P04626 whole entry): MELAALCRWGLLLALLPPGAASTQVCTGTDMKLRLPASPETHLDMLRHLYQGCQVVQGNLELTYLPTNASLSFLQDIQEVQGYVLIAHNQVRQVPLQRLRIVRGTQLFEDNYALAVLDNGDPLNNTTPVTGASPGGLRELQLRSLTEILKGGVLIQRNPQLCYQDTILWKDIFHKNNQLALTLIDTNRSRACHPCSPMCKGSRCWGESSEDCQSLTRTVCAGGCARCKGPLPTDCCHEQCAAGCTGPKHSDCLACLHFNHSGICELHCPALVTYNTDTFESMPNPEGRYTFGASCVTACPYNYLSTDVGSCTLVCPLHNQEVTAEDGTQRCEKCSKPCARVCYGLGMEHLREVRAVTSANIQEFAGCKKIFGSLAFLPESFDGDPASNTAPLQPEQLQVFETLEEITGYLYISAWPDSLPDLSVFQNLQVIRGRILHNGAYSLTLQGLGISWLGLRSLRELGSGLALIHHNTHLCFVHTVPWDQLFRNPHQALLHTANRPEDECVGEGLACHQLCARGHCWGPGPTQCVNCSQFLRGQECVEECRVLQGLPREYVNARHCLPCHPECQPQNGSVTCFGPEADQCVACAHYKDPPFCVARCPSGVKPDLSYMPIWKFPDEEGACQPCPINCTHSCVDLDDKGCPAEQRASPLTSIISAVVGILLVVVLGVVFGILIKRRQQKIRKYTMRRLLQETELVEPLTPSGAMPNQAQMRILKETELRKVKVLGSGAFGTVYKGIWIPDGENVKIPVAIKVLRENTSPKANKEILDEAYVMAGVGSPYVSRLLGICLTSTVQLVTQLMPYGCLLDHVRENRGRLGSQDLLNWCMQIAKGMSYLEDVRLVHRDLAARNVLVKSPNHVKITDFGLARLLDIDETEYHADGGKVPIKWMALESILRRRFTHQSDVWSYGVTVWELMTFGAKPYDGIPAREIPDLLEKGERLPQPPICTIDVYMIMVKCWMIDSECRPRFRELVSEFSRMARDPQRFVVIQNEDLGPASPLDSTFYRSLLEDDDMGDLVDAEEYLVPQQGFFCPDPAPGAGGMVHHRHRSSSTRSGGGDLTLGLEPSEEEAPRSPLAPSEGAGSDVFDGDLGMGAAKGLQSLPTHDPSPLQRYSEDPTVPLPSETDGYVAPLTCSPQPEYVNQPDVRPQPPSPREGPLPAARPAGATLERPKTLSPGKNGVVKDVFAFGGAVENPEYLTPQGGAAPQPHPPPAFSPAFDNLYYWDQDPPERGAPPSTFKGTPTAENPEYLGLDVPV

SMILES	IC50 (MDA-MB-231) [nM]	IC50 (MCF7 [1]) [nM]	IC50 (BT-474) [nM]	IC50 (AU565) [nM]	activity at 10 µM [2] [%]	activity at 10 µM [3] [%]	other results
Fc1cccc(COc2ccc(Nc3ncnc4ccc(OCCCN5CCOCC5)cc34)cc2Cl)c1	7320	6190	81	149			
CNC(=O)c1cc(Oc2ccc(NC(=O)Nc3ccc(Cl)c(C(F)(F)F)c3)cc2)ccn1 [SORAFENIB]					-55	-60	
Cc1cccc(Oc2ccc(Nc3ncnc4ccc(NC(=O)CNCCO)cc34)cc2Cl)c1	7830	10800	132	304	86	-99	activity at 10 µM [4]: -93%; activity at 10 µM [5]: -78%
O=C(CN1CCOCC1)Nc1ccc2ncnc(Nc3ccc(OCc4cccc(F)c4)c(Cl)c3)c2c1	11600	7970	117	130	55	-97	activity at 10 µM [4]: -92%; activity at 10 µM [5]: -81%
Fc1cccc(Oc2ccc(Nc3ncnc4ccc(OCCCN5CCOCC5)cc34)cc2Cl)c1	10200	8330	283	311			
CN(C)Cc1ccc(C(=O)Nc2ccc3ncnc(Nc4ccc(Oc5cccc(F)c5)c(Cl)c4)c3c2)cc1	5000	2640	339	225			Activity [6]: <=78.7%; inhibition of growth at 10 µM [7]: ≤ 78.7%; Activity [8]: 11.7%; Activity (MCF7 [9]): 11.7%; Activity (MDA-MB-468 [10]): 11.7%; inhibition of growth at 10 µM (MDA-MB-468 [11]): 18.8%; Activity [12]: 1.3%; Activity [13]: 11.85%
O=C(Nc1ccc2ncnc(Nc3ccc(Oc4cccc(F)c4)c(Cl)c3)c2c1)c1ccc(CN2CCOCC2)cc1	11500	6220	540	923			
CN1CCN(Cc2ccc(C(=O)Nc3ccc4ncnc(Nc5ccc(Oc6cccc(F)c6)c(Cl)c5)c4c3)cc2)CC1	1900	1620	506	767			Ratio IC50 (MCF7 [14]): <=20
CN1CCN(CC(=O)Nc2ccc3ncnc(Nc4ccc(Oc5cccc(F)c5)c(Cl)c4)c3c2)CC1	5450	5990	221	491			
CCN(CC)CC(=O)Nc1ccc2ncnc(Nc3ccc(Oc4cccc(F)c4)c(Cl)c3)c2c1	3920	5680	532	684			
CCN(CC)CC(=O)Nc1ccc2ncnc(Nc3ccc(Oc4cccc(C)c4)c(Cl)c3)c2c1	2830	2680	265	219			
CS(=O)(=O)CCNCc1ccc(-c2ccc3ncnc(Nc4ccc(OCc5cccc(F)c5)c(Cl)c4)c3c2)o1 [LAPATINIB]	10400	6300	64	64	56	-99	activity at 10 µM [4]: -52%
CN1CCN(CCCOc2ccc3ncnc(Nc4ccc(Oc5cccc(F)c5)c(Cl)c4)c3c2)CC1	1700	913	221	419			Activity [6]: <=78.7%; inhibition of growth at 10 µM [7]: ≤ 78.7%; inhibition of growth at 10 µM (MDA-MB-468 [11]): 18.8%; Activity [12]: 1.3%; Activity [13]: 11.85%; Ratio IC50 (MCF7 [14]): <=20
CN1CCN(CCCOc2ccc3ncnc(Nc4ccc(Oc5cccc(C(F)(F)F)c5)c(Cl)c4)c3c2)CC1	1060	1680	200	447	115	-99	Activity [6]: <=78.7%; inhibition of growth at 10 µM [7]: ≤ 78.7%; Activity [8]: 18%; Activity (MCF7 [9]): 18%; Activity (MDA-MB-468 [10]): 18%; inhibition of growth at 10 µM (MDA-MB-468 [11]): 18.8%; Activity [12]: 1.3%; Activity [13]: 11.85%; Ratio IC50 (MCF7 [14]): <=20; activity at 10 µM [4]: -92%; activity at 10 µM [5]: -78%
OCCNCCCOc1ccc2ncnc(Nc3ccc(Oc4cccc(C(F)(F)F)c4)c(Cl)c3)c2c1	1950	1510	262	456			Activity [6]: <=78.7%; inhibition of growth at 10 µM [7]: ≤ 78.7%; Activity [8]: 18%; Activity (MCF7 [9]): 18%; GI50 (MDA-MB-468 [15]): 600 nM; Activity (MDA-MB-468 [10]): 18%; inhibition of growth at 10 µM (MDA-MB-468 [11]): 18.8%; Activity [12]: 1.3%; Activity [13]: 11.85%; Ratio IC50 (MCF7 [14]): <=20
FC(F)(F)c1cccc(Oc2ccc(Nc3ncnc4ccc(OCCCN5CCOCC5)cc34)cc2Cl)c1	6730	5530	246	348			GI50 (MDA-MB-468 [15]): 500 nM
O=C(CN1CCOCC1)Nc1ccc2ncnc(Nc3ccc(Oc4cccc(C(F)(F)F)c4)c(Cl)c3)c2c1	8850	11200	298	364	82	-94	activity at 10 µM [4]: -91%; activity at 10 µM [5]: -71%
CCN(CC)CCCOc1ccc2ncnc(Nc3ccc(Oc4cccc(C(F)(F)F)c4)c(Cl)c3)c2c1	1370	1600	213	289			Activity [6]: <=78.7%; inhibition of growth at 10 µM [7]: ≤ 78.7%; Activity [8]: 11.7%; Activity (MCF7 [9]): 11.7%; GI50 (MDA-MB-468 [15]): 900 nM; Activity (MDA-MB-468 [10]): 11.7%; inhibition of growth at 10 µM (MDA-MB-468 [11]): 18.8%; Activity [12]: 1.3%; Activity [13]: 11.85%; Ratio IC50 (MCF7 [14]): <=20
CN1CCN(CC(=O)Nc2ccc3ncnc(Nc4ccc(Oc5cccc(C(F)(F)F)c5)c(Cl)c4)c3c2)CC1	2560	2070	369	441			Activity [6]: <=78.7%; inhibition of growth at 10 µM [7]: ≤ 78.7%; Activity [8]: 11.7%; Activity (MCF7 [9]): 11.7%; Activity (MDA-MB-468 [10]): 11.7%; inhibition of growth at 10 µM (MDA-MB-468 [11]): 18.8%; Activity [12]: 1.3%; Activity [13]: 11.85%
CN(C)CC(=O)Nc1ccc2ncnc(Nc3ccc(Oc4cccc(C(F)(F)F)c4)c(Cl)c3)c2c1	2660	5100	478	408			
Cc1cccc(Oc2ccc(Nc3ncnc4ccc(NC(=O)CN(C)C)cc34)cc2Cl)c1	4510	2700	134	154			GI50 (MDA-MB-468 [15]): 200 nM
C[C@]12CC[C@H]3[C@@H](CCC4=CC(=O)CC[C@@]43C)[C@@H]1CC[C@@H]2O [TESTOSTERONE]							CLint scaled at 1 h, 100 µM (in vitro [16]): 1110 mL/min/kg; microsomal CLint at 1 h, 100 µM (in vitro [17]): 279 µL/min/mg
O=C(CN1CCOCC1)Nc1ccc2ncnc(Nc3ccc(Oc4cccc(F)c4)c(Cl)c3)c2c1	30200	18100	373	545	18	-97	activity at 10 µM [4]: -92%; activity at 10 µM [5]: -67%
Cc1cccc(Oc2ccc(Nc3ncnc4ccc(NC(=O)CN5CCOCC5)cc34)cc2Cl)c1	13800	9640	91	152			
O=C(CNCCO)Nc1ccc2ncnc(Nc3ccc(OCc4cccc(F)c4)c(Cl)c3)c2c1	8780	8620	240	220	54	-98	inhibition [18]: 3%; IC50 [19]: 10.4 nM; activity at 10 µM [4]: -93%; activity at 10 µM [5]: -78%
